Values quoted from earlier work, collected in patent US20230285276A1, “Implantable Medical Device for the Delivery of Aromatase Inhibitor” (Celanese EVA Performance Polymers LLC, priority 2022, published 2023).

Tests used:
circulating estrogen = conditions: postmenopausal women
[1] = test system: adrenal biosynthesis of corticosteroids or aldosterone; conditions: in vivo

solubility in N, N-dimethylformamide (N, N-dimethylformamide, descriptive term): freely soluble
solubility in methanol (methanol, descriptive term): soluble
solubility in water (descriptive term) (water): practically insoluble
Compound: C=C1C[C@@H]2[C@H](CC[C@]3(C)C(=O)CC[C@@H]23)[C@@]2(C)C=CC(=O)C=C12 [Exemestane, 6-methylenandrosta-1,4-diene-3,17-dione]
circulating estrogen concentration (circulating estrogen): lowers
effect on adrenal biosynthesis of corticosteroids or aldosterone [1]: no detectable effect
